Source: ChEMBL document CHEMBL5338751, “Discovery of the First-in-Class Intestinal Restricted FXR and FABP1 Dual Modulator ZLY28 for the Treatment of Nonalcoholic Fatty Liver Disease” (J Med Chem, 2023)
Calls of active or inactive are those of the source. The calls are words filed in the database; no cut-off is given here.

Legend:
[1] = molecular target: T1, Fatty acid-binding protein, liver (Homo sapiens) (UniProt P07148); test: Displacement of 8-anilino-1-naphthalene-sulfonic acid from FABP1 (unknown origin) at 10 uM incubated for 3 mins by fluorescence based assay relative to control
T1 sequence (whole entry): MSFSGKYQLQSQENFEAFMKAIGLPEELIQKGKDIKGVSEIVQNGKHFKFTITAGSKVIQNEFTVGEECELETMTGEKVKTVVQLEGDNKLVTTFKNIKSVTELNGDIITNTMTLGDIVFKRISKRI

[2] = molecular target: T2, Fatty acid-binding protein, liver (Homo sapiens, UniProt P07148); test: Displacement of 8-anilino-1-naphthalene-sulfonic acid from FABP1 (unknown origin) incubated for 3 mins by fluorescence based assay
T2 sequence (P07148 whole entry): T1 sequence (whole entry)

Bile acid receptor [3] = molecular target: T3, Bile acid receptor (Homo sapiens, UniProt Q96RI1); test: Agonist activity at FXR-LBD (unknown origin) using fluorescein-coactivator peptide incubated for 3 hrs by TR-FRET assay
T3 sequence (Q96RI1 whole entry): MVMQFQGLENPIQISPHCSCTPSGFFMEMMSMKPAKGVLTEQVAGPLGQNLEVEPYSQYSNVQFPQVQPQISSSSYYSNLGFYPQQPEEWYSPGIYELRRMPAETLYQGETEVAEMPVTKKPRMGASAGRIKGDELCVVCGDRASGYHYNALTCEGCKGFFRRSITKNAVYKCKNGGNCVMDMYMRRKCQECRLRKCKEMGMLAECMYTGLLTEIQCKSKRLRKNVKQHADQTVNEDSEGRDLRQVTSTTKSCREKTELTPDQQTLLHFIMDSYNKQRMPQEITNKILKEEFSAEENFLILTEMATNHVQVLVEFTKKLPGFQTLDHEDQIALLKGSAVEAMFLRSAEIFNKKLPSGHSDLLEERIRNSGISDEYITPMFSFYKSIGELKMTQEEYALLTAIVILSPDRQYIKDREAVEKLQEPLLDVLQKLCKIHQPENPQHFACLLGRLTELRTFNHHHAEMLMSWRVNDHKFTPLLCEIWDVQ

Bile acid receptor [4] = molecular target: T3, Bile acid receptor; test: Agonist activity at FXR (unknown origin) expressed in human HepG2 cells co-transfected with human RXR assessed as luciferase activity incubated for 24 hrs by cell-based luciferase assay
[5] = molecular target: Oxysterols receptor LXR-alpha (Homo sapiens, UniProt Q13133); test: Inhibition of Gal-DBD and NHRLBD fused LXRalpha (unknown origin) transfected in African green monkey CV-1 cells by luciferase assay; format: cell-based
[6] = molecular target: Oxysterols receptor LXR-beta (Homo sapiens, UniProt P55055); test: Inhibition of Gal-DBD and NHRLBD fused LXRbeta (unknown origin) transfected in African green monkey CV-1 cells by luciferase assay; format: cell-based
[7] = molecular target: Thyroid hormone receptor beta (Homo sapiens, UniProt P10828); test: Activation of pGAL4 fused THRbeta LBD (unknown origin) transfected in HEK293 cells cotransfected with pG5-Luc and pRL-TK incubated for 24 hrs by Renilla/Firefly based dual-glo luciferase assay; format: cell-based
[8] = molecular target: T4, Peroxisome proliferator-activated receptor alpha (Homo sapiens, UniProt Q07869); test: Inhibition of pBIND-PPARalpha (unknown origin) transfected in HepG2 cells incubated for 18 hrs in presence of […] by dual luciferase reporter assay; format: cell-based
T4 sequence (Q07869 whole entry): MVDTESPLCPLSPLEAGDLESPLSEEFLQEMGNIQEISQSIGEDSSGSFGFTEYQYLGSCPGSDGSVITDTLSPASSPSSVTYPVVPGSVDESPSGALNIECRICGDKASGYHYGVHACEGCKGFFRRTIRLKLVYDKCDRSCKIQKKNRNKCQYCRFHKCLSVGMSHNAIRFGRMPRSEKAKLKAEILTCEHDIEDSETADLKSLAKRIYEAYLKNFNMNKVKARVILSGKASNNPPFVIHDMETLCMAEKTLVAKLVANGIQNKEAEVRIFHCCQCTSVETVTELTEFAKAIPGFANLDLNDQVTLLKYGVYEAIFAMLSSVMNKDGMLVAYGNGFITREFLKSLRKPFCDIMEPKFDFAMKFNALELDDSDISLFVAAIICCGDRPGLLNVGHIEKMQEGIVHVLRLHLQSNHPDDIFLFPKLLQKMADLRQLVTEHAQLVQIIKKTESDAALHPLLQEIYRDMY

[9] = Inhibition of PPARbeta/delta (unknown origin) transfected in HepG2 cells incubated for 18 hrs in presence of GW0742 by dual luciferase reporter assay; conditions: Homo sapiens, HepG2, 18 h
[10] = molecular target: T5, Peroxisome proliferator-activated receptor gamma (Homo sapiens, UniProt P37231); test: Inhibition of PPARgamma (unknown origin) transfected in HEK293 cells incubated for 18 hrs in presence of rosiglitazone by dual luciferase reporter assay; format: cell-based
T5 sequence (P37231 whole entry): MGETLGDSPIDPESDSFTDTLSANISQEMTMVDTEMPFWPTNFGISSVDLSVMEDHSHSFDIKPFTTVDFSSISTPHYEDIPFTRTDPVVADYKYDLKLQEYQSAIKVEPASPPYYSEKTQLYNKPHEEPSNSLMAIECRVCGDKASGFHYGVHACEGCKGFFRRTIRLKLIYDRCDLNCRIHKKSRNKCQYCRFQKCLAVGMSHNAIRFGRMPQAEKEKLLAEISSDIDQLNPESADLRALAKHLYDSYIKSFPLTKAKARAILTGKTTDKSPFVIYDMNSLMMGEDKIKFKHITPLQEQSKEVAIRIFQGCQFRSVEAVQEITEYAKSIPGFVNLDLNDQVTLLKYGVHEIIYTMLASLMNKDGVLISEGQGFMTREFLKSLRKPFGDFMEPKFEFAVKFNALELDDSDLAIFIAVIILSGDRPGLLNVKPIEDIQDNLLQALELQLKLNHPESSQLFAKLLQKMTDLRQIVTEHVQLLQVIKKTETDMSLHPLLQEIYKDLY

[11] = Metabolic stability in mouse liver microsomes assessed as parent compound remaining incubated for 1 hr by LC-MS analysis; format: ADME, Microsome; conditions: read-out: Stability
[12] = Metabolic stability in Sprague-Dawley rat liver microsomes assessed as parent compound remaining incubated for 1 hr by LC-MS analysis; format: ADME, Microsome; conditions: read-out: Stability
Mus musculus [13] = test: Anti-NASH activity in western diet and CCl4-induced nonalcoholic steatohepatitis C57BL/6 mouse assessed as alleviation of hepatic steatosis at 20 mg/kg, po administered for 12 weeks starting from week 8 and change in dose for every 5 days; format: functional, organism-based; conditions: time 4.0 weeks
Mus musculus [14] = test: Anti-NASH activity in western diet and CCl4-induced nonalcoholic steatohepatitis C57BL/6 mouse assessed as alleviation of lobular inflammation at 20 mg/kg, po administered for 12 weeks starting from week 8 and change in dose for every 5 days; format: functional, organism-based; conditions: time 4.0 weeks
[15] = molecular target: G-protein coupled bile acid receptor 1 (Homo sapiens, UniProt Q8TDU6); test: Activation of TGR5 (unknown origin) transfected in human NCI-H716 cells assessed as increase in cAMP production incubated for 24 hrs by HTR-FRET assay; format: functional, cell-based
[16] = Metabolic stability in Beagle dog liver microsomes assessed as parent compound remaining incubated for 1 hr by LC-MS analysis; format: ADME, Canis lupus familiaris, Microsome; conditions: read-out: Stability
[17] = Metabolic stability in rhesus monkey liver microsomes assessed as parent compound remaining incubated for 1 hr by LC-MS analysis; format: ADME, Macaca mulatta, Microsome; conditions: read-out: Stability
[18] = Metabolic stability in human liver microsomes assessed as parent compound remaining incubated for 1 hr by LC-MS analysis; format: ADME, Microsome; conditions: read-out: Stability
[19] = molecular target: Retinoic acid receptor gamma (Homo sapiens, UniProt P13631); test: Activation of Gal-DBD and NHRLBD fused RARgamma (unknown origin) transfected in African green monkey CV-1 cells by luciferase reporter assay; format: cell-based
[20] = molecular target: Retinoic acid receptor alpha (Homo sapiens, UniProt P10276); test: Activation of Gal-DBD and NHRLBD fused RARalpha (unknown origin) transfected in African green monkey CV-1 cells by luciferase reporter assay; format: cell-based
Progesterone receptor = Progesterone receptor (Homo sapiens, UniProt P06401); test: Activation of Gal-DBD and NHRLBD fused PR (unknown origin) transfected in African green monkey CV-1 cells by luciferase reporter assay; format: cell-based
Androgen receptor = Androgen receptor (Homo sapiens, UniProt P10275); test: Activation of Gal-DBD and NHRLBD fused AR (unknown origin) transfected in African green monkey CV-1 cells by luciferase reporter assay; format: cell-based
[21] = molecular target: Mineralocorticoid receptor (Homo sapiens, UniProt P08235); test: Activation of Gal-DBD and NHRLBD fused MR (unknown origin) transfected in African green monkey CV-1 cells by luciferase reporter assay; format: cell-based
[22] = molecular target: Fatty acid-binding protein, heart (Homo sapiens, UniProt P05413); test: Displacement of 8-anilino-1-naphthalene-sulfonic acid from FABP3 (unknown origin) incubated for 3 mins by fluorescence based assay
[23] = molecular target: Fatty acid-binding protein, adipocyte (Homo sapiens, UniProt P15090); test: Displacement of 8-anilino-1-naphthalene-sulfonic acid from FABP4 (unknown origin) incubated for 3 mins by fluorescence based assay
[24] = Drug concentration in C57BL/6 mouse plasma at 20 mg/kg, po administered for 5 days and measured after 1 hr post final dose by LC-MS analysis; format: ADME, organism-based; conditions: time 5 day
[25] = Drug concentration in C57BL/6 mouse liver at 20 mg/kg, po administered for 5 days and measured after 1 hr post final dose by LC-MS analysis; format: ADME, organism-based; conditions: time 5 day, read-out: Ct
[26] = Drug concentration in C57BL/6 mouse ileum at 20 mg/kg, po administered for 5 days and measured after 1 hr post final dose by LC-MS analysis; format: ADME, organism-based; conditions: time 5 day, read-out: Ct

Sequence of Oxysterols receptor LXR-beta (P55055 whole entry, the tested form may be a part): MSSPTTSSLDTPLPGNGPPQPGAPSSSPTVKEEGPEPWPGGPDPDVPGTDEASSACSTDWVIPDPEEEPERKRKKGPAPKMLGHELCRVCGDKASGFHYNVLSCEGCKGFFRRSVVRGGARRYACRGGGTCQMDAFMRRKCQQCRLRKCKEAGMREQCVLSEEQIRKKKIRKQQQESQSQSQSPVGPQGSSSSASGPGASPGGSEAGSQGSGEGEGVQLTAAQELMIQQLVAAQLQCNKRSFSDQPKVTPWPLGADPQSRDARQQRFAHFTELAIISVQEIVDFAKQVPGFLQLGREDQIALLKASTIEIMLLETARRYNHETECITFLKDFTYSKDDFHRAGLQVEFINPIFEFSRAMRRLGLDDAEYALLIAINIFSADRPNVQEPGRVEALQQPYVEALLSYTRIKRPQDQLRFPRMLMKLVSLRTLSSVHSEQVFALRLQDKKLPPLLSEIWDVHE
Sequence of Oxysterols receptor LXR-alpha (Q13133 whole entry, the tested form may be a part): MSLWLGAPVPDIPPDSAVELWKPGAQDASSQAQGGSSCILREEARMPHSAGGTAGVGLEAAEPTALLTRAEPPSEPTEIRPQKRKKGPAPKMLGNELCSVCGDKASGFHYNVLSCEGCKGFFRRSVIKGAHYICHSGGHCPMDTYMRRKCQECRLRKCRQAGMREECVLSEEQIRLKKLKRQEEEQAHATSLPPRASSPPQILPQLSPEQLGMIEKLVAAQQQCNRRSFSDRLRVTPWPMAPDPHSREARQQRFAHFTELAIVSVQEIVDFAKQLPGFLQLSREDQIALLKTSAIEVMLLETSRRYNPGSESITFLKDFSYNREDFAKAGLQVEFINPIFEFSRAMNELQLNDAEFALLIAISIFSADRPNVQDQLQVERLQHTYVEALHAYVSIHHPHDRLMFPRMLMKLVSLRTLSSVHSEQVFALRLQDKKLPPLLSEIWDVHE
Sequence of G-protein coupled bile acid receptor 1 (Q8TDU6 whole entry): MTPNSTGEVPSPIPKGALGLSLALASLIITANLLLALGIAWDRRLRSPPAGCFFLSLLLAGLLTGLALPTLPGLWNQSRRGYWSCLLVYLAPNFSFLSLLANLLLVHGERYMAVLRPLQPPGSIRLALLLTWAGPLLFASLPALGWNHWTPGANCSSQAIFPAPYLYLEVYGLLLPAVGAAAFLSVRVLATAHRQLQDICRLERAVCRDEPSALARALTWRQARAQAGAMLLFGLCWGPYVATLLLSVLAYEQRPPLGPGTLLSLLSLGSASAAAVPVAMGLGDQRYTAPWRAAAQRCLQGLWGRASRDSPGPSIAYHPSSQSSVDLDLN
Sequence of Androgen receptor (P10275 whole entry, the tested form may be a part): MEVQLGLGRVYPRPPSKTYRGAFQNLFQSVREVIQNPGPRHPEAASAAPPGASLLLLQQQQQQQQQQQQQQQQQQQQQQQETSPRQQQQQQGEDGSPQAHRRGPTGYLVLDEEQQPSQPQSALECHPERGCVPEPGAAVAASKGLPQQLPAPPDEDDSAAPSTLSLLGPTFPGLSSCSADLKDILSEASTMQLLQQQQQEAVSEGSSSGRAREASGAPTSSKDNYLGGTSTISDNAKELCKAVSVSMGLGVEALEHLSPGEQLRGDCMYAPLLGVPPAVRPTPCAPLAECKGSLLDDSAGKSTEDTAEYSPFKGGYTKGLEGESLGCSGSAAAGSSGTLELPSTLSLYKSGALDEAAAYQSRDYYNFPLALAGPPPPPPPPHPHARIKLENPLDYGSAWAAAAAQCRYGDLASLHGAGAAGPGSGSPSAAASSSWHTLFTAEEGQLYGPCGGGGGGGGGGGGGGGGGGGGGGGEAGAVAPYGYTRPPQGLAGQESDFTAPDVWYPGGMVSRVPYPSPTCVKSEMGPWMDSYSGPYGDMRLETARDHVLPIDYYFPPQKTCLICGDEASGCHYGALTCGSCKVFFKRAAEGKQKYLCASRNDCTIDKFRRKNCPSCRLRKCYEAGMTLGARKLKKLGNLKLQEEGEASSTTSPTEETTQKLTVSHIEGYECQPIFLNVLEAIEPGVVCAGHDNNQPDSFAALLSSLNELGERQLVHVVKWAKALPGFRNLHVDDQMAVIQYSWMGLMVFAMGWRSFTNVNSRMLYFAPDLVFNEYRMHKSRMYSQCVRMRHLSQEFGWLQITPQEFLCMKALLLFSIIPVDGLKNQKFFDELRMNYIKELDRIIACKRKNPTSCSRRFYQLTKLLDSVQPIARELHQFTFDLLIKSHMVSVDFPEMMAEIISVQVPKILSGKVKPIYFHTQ
Sequence of Retinoic acid receptor gamma (P13631 whole entry, the tested form may be a part): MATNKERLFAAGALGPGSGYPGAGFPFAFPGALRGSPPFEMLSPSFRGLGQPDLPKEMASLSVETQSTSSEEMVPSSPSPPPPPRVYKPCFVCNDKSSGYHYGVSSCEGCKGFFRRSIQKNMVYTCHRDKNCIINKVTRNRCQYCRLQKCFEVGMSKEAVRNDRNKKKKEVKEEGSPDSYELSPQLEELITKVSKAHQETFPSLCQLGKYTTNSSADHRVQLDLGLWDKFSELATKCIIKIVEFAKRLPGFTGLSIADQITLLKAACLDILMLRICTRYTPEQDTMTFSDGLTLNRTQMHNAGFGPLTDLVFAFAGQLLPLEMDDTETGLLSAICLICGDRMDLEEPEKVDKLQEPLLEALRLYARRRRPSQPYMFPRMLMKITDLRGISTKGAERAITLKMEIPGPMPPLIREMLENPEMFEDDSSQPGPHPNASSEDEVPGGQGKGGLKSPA
Sequence of Thyroid hormone receptor beta (P10828 whole entry, the tested form may be a part): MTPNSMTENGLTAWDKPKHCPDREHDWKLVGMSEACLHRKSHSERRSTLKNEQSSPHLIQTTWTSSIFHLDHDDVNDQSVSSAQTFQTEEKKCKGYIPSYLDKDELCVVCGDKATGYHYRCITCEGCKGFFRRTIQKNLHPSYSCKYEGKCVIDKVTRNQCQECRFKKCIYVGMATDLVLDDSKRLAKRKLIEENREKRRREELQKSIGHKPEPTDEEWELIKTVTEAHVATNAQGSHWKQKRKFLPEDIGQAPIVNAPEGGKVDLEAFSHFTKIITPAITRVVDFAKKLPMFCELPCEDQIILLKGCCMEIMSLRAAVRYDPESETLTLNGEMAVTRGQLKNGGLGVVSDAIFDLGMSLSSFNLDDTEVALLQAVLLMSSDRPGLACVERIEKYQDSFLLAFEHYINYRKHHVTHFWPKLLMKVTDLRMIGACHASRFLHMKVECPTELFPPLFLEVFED
Sequence of Fatty acid-binding protein, heart (P05413 whole entry): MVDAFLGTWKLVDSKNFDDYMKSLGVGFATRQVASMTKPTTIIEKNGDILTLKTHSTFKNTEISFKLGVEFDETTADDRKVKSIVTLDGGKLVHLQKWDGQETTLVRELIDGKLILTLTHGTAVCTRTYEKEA
Sequence of Mineralocorticoid receptor (P08235 whole entry, the tested form may be a part): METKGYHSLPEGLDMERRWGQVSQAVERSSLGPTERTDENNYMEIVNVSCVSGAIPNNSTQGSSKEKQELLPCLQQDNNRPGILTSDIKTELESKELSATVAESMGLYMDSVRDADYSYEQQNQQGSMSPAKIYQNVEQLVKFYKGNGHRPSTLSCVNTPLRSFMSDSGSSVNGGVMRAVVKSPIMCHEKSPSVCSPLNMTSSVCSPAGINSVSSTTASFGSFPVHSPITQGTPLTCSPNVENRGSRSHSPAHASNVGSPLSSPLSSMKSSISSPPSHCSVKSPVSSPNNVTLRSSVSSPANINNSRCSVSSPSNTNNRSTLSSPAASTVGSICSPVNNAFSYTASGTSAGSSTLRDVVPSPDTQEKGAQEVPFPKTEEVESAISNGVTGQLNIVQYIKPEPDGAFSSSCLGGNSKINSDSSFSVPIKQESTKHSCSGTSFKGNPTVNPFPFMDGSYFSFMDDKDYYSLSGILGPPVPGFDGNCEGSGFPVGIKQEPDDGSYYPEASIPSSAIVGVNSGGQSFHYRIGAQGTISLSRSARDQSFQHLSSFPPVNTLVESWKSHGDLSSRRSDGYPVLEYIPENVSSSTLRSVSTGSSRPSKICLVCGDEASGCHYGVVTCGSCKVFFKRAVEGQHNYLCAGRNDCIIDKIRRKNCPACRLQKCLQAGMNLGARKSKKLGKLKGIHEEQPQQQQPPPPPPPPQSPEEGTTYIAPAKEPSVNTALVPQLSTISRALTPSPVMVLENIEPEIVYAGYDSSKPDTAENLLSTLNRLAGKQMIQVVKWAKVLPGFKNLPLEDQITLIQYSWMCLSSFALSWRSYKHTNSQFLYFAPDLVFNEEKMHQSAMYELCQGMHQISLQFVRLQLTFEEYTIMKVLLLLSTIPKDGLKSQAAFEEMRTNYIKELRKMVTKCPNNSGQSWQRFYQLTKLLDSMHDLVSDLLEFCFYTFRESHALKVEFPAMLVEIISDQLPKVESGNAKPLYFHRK
Sequence of Fatty acid-binding protein, adipocyte (P15090 whole entry): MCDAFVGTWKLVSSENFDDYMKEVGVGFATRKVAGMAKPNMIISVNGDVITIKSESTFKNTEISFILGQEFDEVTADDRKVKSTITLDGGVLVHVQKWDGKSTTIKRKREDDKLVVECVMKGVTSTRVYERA
Sequence of Retinoic acid receptor alpha (P10276 whole entry, the tested form may be a part): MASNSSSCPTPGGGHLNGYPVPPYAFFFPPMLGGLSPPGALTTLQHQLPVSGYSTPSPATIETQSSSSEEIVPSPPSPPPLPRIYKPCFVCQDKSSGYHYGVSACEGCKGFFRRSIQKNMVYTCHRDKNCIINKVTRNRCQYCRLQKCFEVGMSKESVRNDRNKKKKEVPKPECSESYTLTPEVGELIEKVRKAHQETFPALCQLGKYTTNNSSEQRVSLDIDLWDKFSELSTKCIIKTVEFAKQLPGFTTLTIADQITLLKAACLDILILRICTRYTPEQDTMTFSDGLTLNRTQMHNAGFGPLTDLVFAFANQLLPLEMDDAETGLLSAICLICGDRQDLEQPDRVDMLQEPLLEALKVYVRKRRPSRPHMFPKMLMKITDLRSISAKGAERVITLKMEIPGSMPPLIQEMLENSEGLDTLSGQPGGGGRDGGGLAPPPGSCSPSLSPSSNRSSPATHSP

CC(C)c1onc(-c2c(Cl)cccc2Cl)c1COc1ccc(/C=C/c2cccc(C(=O)O)c2)c(Cl)c1
inhibition [1]: 35.2%
IC50 [2]: 15.3 µM

O=C(O)CCc1cccc(-c2ccc(OCc3c(-c4c(Cl)cccc4Cl)noc3C3CC3)cc2)c1
IC50 [2]: 3.3 µM

CC(C)(Oc1ccc(-c2ccc(OCc3c(-c4c(Cl)cccc4Cl)noc3C3CC3)cc2)cc1)C(=O)O
IC50 [2]: 5.7 µM

O=C(O)C1(c2cccc(-c3cccc(OCc4c(-c5c(Cl)cccc5Cl)noc4C4CC4)c3)c2)CC1
EC50 (Bile acid receptor [3]): > 10 µM

CCc1c(-c2ccccc2)c(-c2ccccc2)nn1-c1ccccc1-c1cccc(OCC(=O)O)c1
EC50 (Bile acid receptor [3]): > 10 µM
EC50 (Bile acid receptor [4]): > 10 µM
inhibition [1]: 72.7%
IC50 [2]: 4 µM
EC50 [5]: > 10 µM
EC50 [6]: > 10 µM
EC50 [7]: > 10 µM
IC50 [8]: > 10 µM
IC50 [9]: > 10 µM
IC50 [10]: > 10 µM

O=C(O)CCc1ccc(-c2ccc(OCc3c(-c4c(Cl)cccc4Cl)noc3C3CC3)cc2)cc1
IC50 [2]: 1.4 µM
remaining at 1 h [11]: 19.7%
remaining at 1 h [12]: 26.1%

CC(C)c1onc(-c2c(Cl)cccc2Cl)c1COc1ccc(-c2cccc(C3(C(=O)O)CC3)c2)cc1
remaining at 1 h [11]: 35.6%
remaining at 1 h [12]: 41.1%

O=C(O)COc1cccc(-c2ccc(OCc3c(-c4c(Cl)cccc4Cl)noc3C3CC3)cc2)c1
EC50 (Bile acid receptor [3]): 0.26 µM
EC50 (Bile acid receptor [4]): 1.85 µM
inhibition [1]: 67.1%
IC50 [2]: 3.8 µM

CC[C@H]1[C@@H](O)[C@@H]2[C@H](CC[C@]3(C)[C@@H]([C@H](C)CCC(=O)O)CC[C@@H]23)[C@@]2(C)CC[C@@H](O)C[C@@H]12
Activity (Mus musculus [13]): Active
Activity (Mus musculus [14]): Active

O=C(O)Cc1cccc(N2CCC(OCc3c(-c4c(Cl)cccc4Cl)noc3C3CC3)CC2)c1
EC50 (Bile acid receptor [3]): > 10 µM

CC(C)(C(=O)O)c1cccc(-c2ccc(OCc3c(-c4c(Cl)cccc4Cl)noc3C3CC3)cc2)c1
EC50 (Bile acid receptor [3]): 0.811 µM
inhibition [1]: 85.8%
IC50 [2]: 1.5 µM

O=C(O)Cc1ccc(-c2ccc(OCc3c(-c4c(Cl)cccc4Cl)noc3C3CC3)cc2)cc1
EC50 [15]: > 10 µM
IC50 [2]: 2.9 µM
remaining at 1 h [11]: 74.3%
remaining at 1 h [12]: 86.8%
remaining at 1 h [16]: 69.1%
remaining at 1 h [17]: 64.5%
remaining at 1 h [18]: 83.6%
EC50 [5]: > 10 µM
EC50 [6]: > 10 µM
EC50 [19]: > 10 µM
EC50 [20]: > 10 µM
EC50 (Progesterone receptor): > 10 µM
EC50 (Androgen receptor): > 10 µM
EC50 [21]: > 10 µM
IC50 [22]: > 30 µM
IC50 [23]: 5.6 µM
concentration at 120 h [24]: 2530 ng/mL
concentration at 120 h [25]: 718 ng/g
concentration at 120 h [26]: 158 ng/g

CC(Oc1ccc(-c2ccc(OCc3c(-c4c(Cl)cccc4Cl)noc3C3CC3)cc2)cc1)C(=O)O (centres undefined)
EC50 (Bile acid receptor [3]): 0.32 µM
EC50 (Bile acid receptor [4]): 3.51 µM
inhibition [1]: 69.4%
IC50 [2]: 3.6 µM

O=C(O)Cc1ccc(-c2cccc(OCc3c(-c4c(Cl)cccc4Cl)noc3C3CC3)c2)cc1
EC50 (Bile acid receptor [3]): > 10 µM
inhibition [1]: 9.5%

O=C(O)Cc1ccc(-c2ccc(OCc3c(-c4c(Cl)cccc4Cl)noc3C3CC3)cc2Cl)cc1
IC50 [2]: 4.3 µM

O=C(O)COc1ccc(-c2ccc(OCc3c(-c4c(Cl)cccc4Cl)noc3C3CC3)cc2)cc1
IC50 [2]: 4.2 µM
remaining at 1 h [11]: 56.8%
remaining at 1 h [12]: 68.3%
